According to ChEMBL document CHEMBL1157955, “Anti-inflammatory neolignans from Piper kadsura” (J Nat Prod, 2006):

Test: Antiinflammatory activity in human PMN assessed as inhibition of Phorbol-12-myristate-13-acetate-induced ROS production
Type: functional

| IC50 [µM] | Compound |
| --- | --- |
| 13.1 | C=CCC1=CC(OC)(/C(C)=C/c2ccc3c(c2)OCO3)C(OC)=CC1=O (stereo not given) [FUTOQUINOL] |
| 8.4 | O=C(/C=C/c1ccc(O)cc1)NCCc1ccc(O)cc1 [N-P-COUMAROYL TYRAMINE] |
| 4.3 | C=CCC1=C[C@@](OC)(/C(C)=C/c2ccc(O)c(OC)c2)C(OC)=CC1=O [PIPERKADSIN A] |
| 12.2 | C=CCC1([C@H](C)[C@@H](OC(C)=O)c2ccc(OC)c(OC)c2)C=C(OC)C(OC)=CC1=O (stereo not given in full) [PIPERKADSIN B] |
| 7 | COc1c(O)cc2c3c(cc4ccccc4c13)N(OC)C2=O [PIPERLACTAM S] |
